This is an account of results in ChEMBL document CHEMBL1158309, “Callyspongins A and B: Novel Polyacetylene Sulfates from the Marine Sponge Callyspongia truncata That Inhibit Fertilization of Starfish Gametes” (J Nat Prod, 1996).

Data set [1] is described as follows: Antifertilization activity in Asterias amurensis fertilized egg assessed as inhibition of blastula development at 100 uM. The data set is classed as functional.
The nature of data set [2]: Antifertilization activity in Asterias amurensis oocyte assessed as inhibition of 1-methyladenine-induced oocyte maturation at 100 uM. The data set is classed as functional, cell-based.
Data set [3] is described as follows: Antifertilization activity in Asterias amurensis sperm assessed as inhibition of sperm motility after 30 mins. The data set is classed as functional, cell-based.
Data set [4] is described as follows: Antifertilization activity in Asterias amurensis egg assessed as inhibition of egg activation after 30 mins. The data set is classed as functional.
Data set [5] is described as follows: Toxicity against Asterias amurensis sperm in sea water at 100 uM. The data set is classed as cell-based.
Data set [6] in a line: Toxicity against Asterias amurensis embryos lysed in sea water at 100 uM. Conditions: buffer. More on the design: species or system Embryo.
A short description of data set [7]: Toxicity against Asterias amurensis egg in sea water at 100 uM. Conditions: buffer.

≈ marks a conversion by molar mass, not a printed value. Calls of active or inactive are those of the source. The calls are words filed in the database; no cut-off is given here. Some results are limits rather than exact numbers.

As for `C#C/C=C\CCCC/C=C\C#CC#CCCCC#CC#C[C@H](COS(=O)(=O)O)OS(=O)(=O)O`, the result in data set [1] and in data set [2] was inactive. Moreover, the MIC in data set [3] was 50 µM (≈ 24.6 µg/mL); in data set [4], 6.3 µM (≈ 3.1 µg/mL).

Regarding `C#C/C=C\CCCC/C=C\C#CC#CCCCC#CC#C[C@@H](O)CO` [SIPHONODIOL], the outcome in data set [2] was inactive. Moreover, the Activity entry in data set [5], in data set [6] and in data set [7] was “Toxic” in each case. Also, the MIC in data set [3] was 13 µM (≈ 4.32 µg/mL); in data set [4], > 200 µM.

With `C#C/C=C\CCCC/C=C\C#CC#CCCCC#CC#C[C@@H](O)COS(=O)(=O)O`, the result in data set [1] and in data set [2] was inactive. In addition, the MIC in data set [3] is 100 µM (≈ 41.3 µg/mL); in data set [4] it was 50 µM (≈ 20.6 µg/mL).
